In brackets after ≈: the same amount, converted by molar mass. Some results are limits rather than exact numbers.

The test system of one assay is S. aureus clinical. In words: microbe, parasite or virus in culture. The settings on record: Staphylococcus aureus, read-out: Gram-positive MIC S. aureus clinical. In kind it is cell-based.
The test system of the next assay is E. coli (ATCC 25922). In words: microbe, parasite or virus in culture. In kind it is cell-based. The settings on record: Escherichia coli, ATCC25922, read-out: Gram-negative MIC E. coli ATCC 25922.
A further assay deals with E. coli MDR. In words: microbe, parasite or virus in culture. The assay is classed as cell-based. The settings on record: Escherichia coli, read-out: Gram-negative MIC E. coli MDR.
The subject of assay [1] is P. aeruginosa (ATCC 29853). In kind it is cell-based, Pseudomonas aeruginosa.
A further assay concerns P. aeruginosa MDR. In words: microbe, parasite or virus in culture. The assay is classed as cell-based, Pseudomonas aeruginosa. The settings on record: for MIC: Pseudomonas aeruginosa, read-out: Gram-negative MIC P. aeruginosa MDR.
The next assay has as its system C. albicans clinical. In words: microbe, parasite or virus in culture. The assay is classed as cell-based, Candida albicans. The conditions noted are these: for MIC: Candida albicans, read-out: fungi MIC C. albicans clinical.

On to `CC1(C)S[C@@H]2[C@H](NC(=O)[C@H](N)c3ccc(O)cc3)C(=O)N2[C@H]1C(=O)O` [AMOX, amoxicillin, reference compound], for which the MIC in the assay with S. aureus clinical was at most 7.81 µg/mL; in the assay with E. coli (ATCC 25922), 62.5 µg/mL (≈ 171 µM); in the assay with E. coli MDR, 250 µg/mL (≈ 684 µM); in the assay with P. aeruginosa MDR it was above 500 µg/mL. Also, the “Gram-negative MIC P. aeruginosa (ATCC 29853)” value in assay [1] is above 500 µg/mL. In addition, the “Gram-negative MIC P. aeruginosa MDR” value in the assay with P. aeruginosa MDR is above 500 µg/mL.

Consider `Cc1nc2ccccc2n(-c2ccc([N+](=O)[O-])cc2[N+](=O)[O-])c1=O` [Compound 4, 1-(2,4-Dinitrophenyl)-3-methylquinoxalin-2(1H)-one], for which the MIC in the assay with S. aureus clinical was determined as 16.1 µg/mL (≈ 49.4 µM); in the assay on E. coli (ATCC 25922), 125 µg/mL (≈ 383 µM); with E. coli MDR it was 125 µg/mL (≈ 383 µM); with P. aeruginosa MDR, 125 µg/mL (≈ 383 µM); in the assay on C. albicans clinical, 125 µg/mL (≈ 383 µM).

As to `O=c1c(Cc2ccccc2)nc2ccccc2n1-c1ccc([N+](=O)[O-])cc1[N+](=O)[O-]` [Compound 5, 3-Benzyl-1-(2,4-dinitrophenyl)quinoxalin-2(1H)-one], the MIC was 500 µg/mL (≈ 1240 µM) in the assay on S. aureus clinical; above 500 µg/mL with E. coli (ATCC 25922); above 500 µg/mL with E. coli MDR; 125 µg/mL (≈ 311 µM) with P. aeruginosa MDR; above 500 µg/mL in the assay with C. albicans clinical.

With `O=[N+]([O-])c1ccc(Sc2nc3ccccc3s2)c([N+](=O)[O-])c1` [Compound 6, 2-[(2,4-Dinitrophenyl)thio]benzo[d]thiazole], the MIC is 500 µg/mL (≈ 1500 µM) in the assay on S. aureus clinical; 500 µg/mL (≈ 1500 µM) with E. coli (ATCC 25922); above 500 µg/mL in the assay with E. coli MDR; 125 µg/mL (≈ 375 µM) in the assay with P. aeruginosa MDR; 500 µg/mL (≈ 1500 µM) with C. albicans clinical.

For `Cn1ccc(=O)nc1Sc1ccc([N+](=O)[O-])cc1[N+](=O)[O-]` [Compound 7, 2-[(2,4-Dinitrophenyl)thio]-1-methylpyrimidin-4(1H)-one], the MIC worked out at 32.2 µg/mL (≈ 105 µM) with S. aureus clinical; 64.5 µg/mL (≈ 209 µM) in the assay with E. coli (ATCC 25922); 125 µg/mL (≈ 405 µM) in the assay with E. coli MDR; 125 µg/mL (≈ 405 µM) with P. aeruginosa MDR; 16.1 µg/mL (≈ 52.3 µM) in the assay with C. albicans clinical.

In the case of `O=[N+]([O-])c1ccc(Oc2cccc3cccnc23)c([N+](=O)[O-])c1` [Compound 8, 8-(2,4-Dinitrophenoxy)quinoline], the MIC in the assay on S. aureus clinical, in the assay on E. coli (ATCC 25922), with E. coli MDR, with P. aeruginosa MDR and in the assay with C. albicans clinical was 125 µg/mL (≈ 402 µM) in each case.

Turning to `CC(C)(C)c1cccc(C(C)(C)C)c1Oc1ccc([N+](=O)[O-])cc1[N+](=O)[O-]` [Compound 9, 1,3-Di-tert-butyl-2-(2,4-dinitrophenoxy)benzene], the MIC is 500 µg/mL (≈ 1340 µM) with S. aureus clinical; above 500 µg/mL in the assay on E. coli (ATCC 25922); 125 µg/mL (≈ 336 µM) in the assay with E. coli MDR; 125 µg/mL (≈ 336 µM) in the assay with P. aeruginosa MDR; above 500 µg/mL in the assay with C. albicans clinical.

As for `O=[N+]([O-])c1ccc(-n2ccnc2)c([N+](=O)[O-])c1` [Compound 11, 1-(2,4-Dinitrophenyl)-1H-imidazole], the MIC in the assay on S. aureus clinical, in the assay on E. coli (ATCC 25922), in the assay on E. coli MDR, in the assay on P. aeruginosa MDR and with C. albicans clinical was 125 µg/mL (≈ 534 µM) each time.

For `C[C@@H]1[C@H](O)[C@@H](C)/C=C/C=C/CC/C=C/C=C/C=C/C=C/C(O[C@H]2O[C@H](C)[C@@H](O)[C@H](N)[C@@H]2O)CC2O[C@](O)(CC(O)C(O)CCC(O)CC(O)CC(O)CC(=O)O[C@H]1C)CC(O)C2C(=O)O` (stereo partly drawn) [NYS, nystatin, reference compound], in the assay on C. albicans clinical, the “fungi MIC C. albicans clinical” value was below 2 µg/mL.

The values are drawn from publication PMC8851660 (ACS Omega, 2022).
